Test results taken from patent US7605163B2, “Benzoyl-piperazine derivatives” (Hoffmann-La Roche Inc., priority 2003, dated 2009).

Molecular target: T1, mGlyT-1b (Mus musculus, UniProt P28571)
T1 construct: host or cells: Flp-in-CHO cells
T1 sequence (P28571 1-651 isoform P28571-2): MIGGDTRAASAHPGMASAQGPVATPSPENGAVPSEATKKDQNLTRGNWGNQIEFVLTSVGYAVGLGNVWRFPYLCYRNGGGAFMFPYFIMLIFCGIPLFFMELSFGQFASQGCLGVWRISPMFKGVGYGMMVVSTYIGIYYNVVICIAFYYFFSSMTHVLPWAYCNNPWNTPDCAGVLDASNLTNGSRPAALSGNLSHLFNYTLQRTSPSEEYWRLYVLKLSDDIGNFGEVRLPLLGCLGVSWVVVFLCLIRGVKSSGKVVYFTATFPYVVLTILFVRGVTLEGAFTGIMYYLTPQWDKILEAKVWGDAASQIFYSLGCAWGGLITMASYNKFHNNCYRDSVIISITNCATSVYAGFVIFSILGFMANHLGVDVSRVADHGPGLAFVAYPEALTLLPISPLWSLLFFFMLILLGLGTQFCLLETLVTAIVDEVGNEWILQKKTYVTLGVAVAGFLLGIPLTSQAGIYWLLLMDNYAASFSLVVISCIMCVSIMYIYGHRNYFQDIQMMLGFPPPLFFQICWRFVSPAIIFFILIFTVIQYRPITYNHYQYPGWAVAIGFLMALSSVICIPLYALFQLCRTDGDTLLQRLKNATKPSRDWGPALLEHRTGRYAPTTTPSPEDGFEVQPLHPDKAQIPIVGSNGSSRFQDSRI
Assay: Glycine Uptake Inhibition Assay (mGlyT-1b)
Assay type: cell-based
Conditions: [3H]-glycine uptake inhibition at GlyT-1, Flp-in-CHO cells transfected with mGlyT-1b cDNA
Protocol: DMEM complete medium: Nutrient mixture F-12 (Gibco Life-technologies), fetal bovine serum (FBS) 5%, (Gibco life technologies), Penicillin/Streptomycin 1% (Gibco life technologies), Hygromycin 0.6 mg/ml (Gibco life technologies), Glutamine 1 mM Gibco life technologies)
Uptake buffer (UB): 150 mM NaCl, 10 mM Hepes-Tris, pH 7.4, 1 mM CaCl2, 2.5 mM KCl, 2.5 mM MgSO4, 10 mM (+) D-glucose. Flp-in™-CHO (Invitrogen Cat n^o R758-07) cells stably transfected with mGlyT1b cDNA.
Glycine Uptake Inhibition Assay (mGlyT-1b)
On day 1 mammalian cells, (Flp-in™-CHO), transfected with mGlyT-1b cDNA, were plated at the density of 40,000 cells/well in complete F-12 medium, without hygromycin in 96-well culture plates. On day 2, the medium was aspirated, and the cells were washed twice with uptake buffer (UB). The cells were then incubated for 20 min at 22° C. with either (i) no potential competitor, (ii) 10 mM non-radioactive glycine, (iii) a concentration of a potential inhibitor. A range of concentrations of the potential inhibitor was used to generate data for calculating the concentration of inhibitor resulting in 50% of the effect (e.g. IC50, the concentration of the competitor inhibiting glycine uptake of 50%).
A solution was then immediately added containing [^3H]-glycine 60 nM (11-16 Ci/mmol) and 25 μM non-radioactive glycine. The plates were incubated with gentle shaking, and the reaction was stopped by aspiration of the mixture and washing (three times) with ice-cold UB. The cells were lysed with scintillation liquid, shaken 3 hours and the radioactivity in the cells counted using a scintillation counter.

Structure (SMILES) | IC50 [nM]
COCCOc1ccc([N+](=O)[O-])cc1C(=O)N1CCN(c2ccc(C(C)=O)cc2F)CC1 [Example 54, 1-(3-Fluoro-4-{4-[2-(2-methoxy-ethoxy)-5-nitro-benzoyl]-piperazin-1-yl}-phenyl)-ethanone] | 50
N#Cc1ccc(N2CCN(C(=O)c3cc(S(=O)(=O)C4CC4)ccc3OC3CCCC3)CC2)c(F)c1 [compound 546] | 35
CC(=O)c1ccc(N2CCN(C(=O)c3cc(S(C)(=O)=O)ccc3OCCC(F)(F)F)CC2)c(F)c1 [compound 118] | 24
CS(=O)(=O)c1ccc(OC2CCC2)c(C(=O)N2CCN(c3ccc(C#N)cc3F)CC2)c1 [compound 313] | 18
O=C(c1cc([N+](=O)[O-])ccc1OCC1CC1)N1CCN(c2ccc(C(F)(F)F)cc2)CC1 [Example 63, (2-Cyclopropylmethoxy-5-nitro-phenyl)-[4-(4-trifluoromethyl-phenyl)-piperazin-1-yl]-methanone] | 28
CNS(=O)(=O)c1ccc(OC(C)C(F)(F)F)c(C(=O)N2CCN(c3ccc(C#N)c(F)c3F)CC2)c1 (racemic) [compound 558] | 29
O=C(c1cc([N+](=O)[O-])ccc1OCC(F)(F)C(F)(F)F)N1CCN(c2ccc(C(F)(F)F)cc2)CC1 [Example 100, [5-Nitro-2-(2,2,3,3,3-pentafluoro-propoxy)-phenyl]-[4-(4-trifluoromethyl-phenyl)-piperazin-1-yl]-methanone] | 20
CC(Oc1ccc(S(C)(=O)=O)cc1C(=O)N1CCN(c2ccc(C(F)(F)F)c(F)c2)CC1)C(F)(F)F (racemic) [compound 303] | 6
CC(C)(C)COc1ccc(S(C)(=O)=O)cc1C(=O)N1CCN(c2ccc(C#N)cc2F)CC1 [compound 291] | 13
CC(C)Oc1ccc(S(C)(=O)=O)cc1C(=O)N1CCN(c2ccc(S(=O)(=O)C3CCCCC3)cc2F)CC1 [compound 589] | 32
CC(C)Oc1ccc([N+](=O)[O-])cc1C(=O)N1CCN(c2ccc(C(F)(F)F)cc2)CC1 [Example 62, (2-Isopropoxy-5-nitro-phenyl)-[4-(4-trifluoromethyl-phenyl)-piperazin-1-yl]-methanone] | 17
CC(C)Oc1ccc(S(C)(=O)=O)cc1C(=O)N1CCN(c2ccc(S(=O)(=O)C3CCC3)cc2F)CC1 [compound 570] | 46
CS(=O)(=O)c1ccc(OC2CCCC2)c(C(=O)N2CCN(c3ccc(C#N)c(F)c3F)CC2)c1 [compound 131] | 30
CS(=O)(=O)c1ccc(OCC2CCC2)c(C(=O)N2CCN(c3c(F)cc(C#N)cc3F)CC2)c1 [compound 147] | 31
CS(=O)(=O)c1ccc(OC2CCCC2)c(C(=O)N2CCN(c3ccc(S(=O)(=O)C4CC4)cc3F)CC2)c1 [compound 573] | 37
CC(C)(Oc1ccc(S(C)(=O)=O)cc1C(=O)N1CCN(c2ccc(C(F)(F)F)cn2)CC1)C(F)(F)F [Example 105, [5-Methanesulfonyl-2-(2,2,2-trifluoro-1,1-dimethyl-ethoxy)-phenyl]-[4-(5-trifluoromethyl-pyridin-2-yl)-piperazin-1-yl]-methanone] | 39
CC(C)Oc1ccc(S(C)(=O)=O)cc1C(=O)N1CCN(c2ccc(C#N)c(F)c2F)CC1 [compound 109] | 21
CC(Oc1ccc(S(C)(=O)=O)cc1C(=O)N1CCN(c2ccc(C(F)(F)F)cc2)CC1)C1CC1 (racemic) [Example 104, Rac-[2-(1-Cyclopropyl-ethoxy)-5-methanesulfonyl-phenyl]-[4-(4-trifluoromethyl-phenyl)-piperazin-1-yl]-methanone] | 46
CCS(=O)(=O)c1ccc(N2CCN(C(=O)c3cc(S(C)(=O)=O)ccc3OCC3CC3)CC2)c(F)c1 [compound 562] | 44
CC(Oc1ccc(S(C)(=O)=O)cc1C(=O)N1CCN(c2ccc(C(F)(F)F)cc2F)CC1)C(F)(F)F (single isomer, unassigned) [compound 466] | 26
CC(C)(C)COc1ccc(S(C)(=O)=O)cc1C(=O)N1CCN(c2ccc(S(C)(=O)=O)cc2F)CC1 [compound 296] | 43
O=C(c1cc([N+](=O)[O-])ccc1OCC(F)(F)F)N1CCN(c2ccc(C(F)(F)F)cc2)CC1 [Example 84, [5-Nitro-2-(2,2,2-trifluoro-ethoxy)-phenyl]-[4-(4-trifluoromethyl-phenyl)-piperazin-1-yl]-methanone] | 40

Structure (SMILES) | IC50 [nM]
CCS(=O)(=O)c1ccc(N2CCN(C(=O)c3cc(S(C)(=O)=O)ccc3OC3CCCC3)CC2)c(F)c1 [compound 563] | 43
CS(=O)(=O)c1ccc(OC2CCCC2)c(C(=O)N2CCN(c3ccc(C(F)(F)F)cn3)CC2)c1 [compound 412] | 33
CC(C)COc1ccc(S(C)(=O)=O)cc1C(=O)N1CCN(c2cc(F)c(C#N)cc2F)CC1 [compound 132] | 38
CNS(=O)(=O)c1ccc(OCC(C)C)c(C(=O)N2CCN(c3ccc(C#N)c(F)c3)CC2)c1 [compound 475] | 40
CNS(=O)(=O)c1ccc(OCC(C)C)c(C(=O)N2CCN(c3ccc(C(C)=O)cc3F)CC2)c1 [compound 514] | 45
COCCS(=O)(=O)c1ccc(N2CCN(C(=O)c3cc(S(C)(=O)=O)ccc3OC(C)C)CC2)c(F)c1 [compound 561] | 38
CNS(=O)(=O)c1ccc(OC(F)(F)F)c(C(=O)N2CCN(c3ccc(C#N)c(F)c3)CC2)c1 [compound 111] | 35
CS(=O)(=O)c1ccc(OCC(F)(F)C(F)(F)F)c(C(=O)N2CCN(c3ccc(C(F)(F)F)cc3)CC2)c1 [compound 182] | 30
CS(=O)(=O)c1ccc(OCCC(F)(F)F)c(C(=O)N2CCN(c3ccc(C(F)(F)F)cc3F)CC2)c1 [compound 117] | 44
CS(=O)(=O)c1ccc(OCC(F)(F)C(F)(F)F)c(C(=O)N2CCN(c3c(F)cc(C#N)cc3F)CC2)c1 [compound 186] | 48
CC(C)Oc1ccc(S(C)(=O)=O)cc1C(=O)N1CCN(c2ccc(C=O)cc2F)CC1 [compound 461] | 46
CS(=O)(=O)c1ccc(OC2CCCC2)c(C(=O)N2CCN(c3ccc(S(=O)(=O)C(F)(F)F)cc3)CC2)c1 [Example 329, (2-Cyclopentyloxy-5-methanesulfonyl-phenyl)-[4-(4-trifluoromethanesulfonyl-phenyl)-piperazin-1-yl]-methanone] | 16
CNS(=O)(=O)c1ccc(OC2CCCC2)c(C(=O)N2CCN(c3ccc(C(F)(F)F)cc3)CC2)c1 [compound 527] | 6
CS(=O)(=O)c1ccc(OCC2CCC2)c(C(=O)N2CCN(c3ccc(C(F)(F)F)cc3C#N)CC2)c1 [compound 144] | 45
CC(Oc1ccc(S(C)(=O)=O)cc1C(=O)N1CCN(c2ccc(Cl)cc2C#N)CC1)C(F)(F)F (racemic) [compound 256] | 32
O=C(c1cc([N+](=O)[O-])ccc1OC1CC2CCC1C2)N1CCN(c2ccc(C(F)(F)F)cc2)CC1 (stereo not shown) [Example 88, [2-(Bicyclo[2.2.1]hept-2-yloxy)-5-nitro-phenyl]-[4-(4-trifluoromethyl-phenyl)-piperazin-1-yl]-methanone] | 7
CS(=O)(=O)c1ccc(OCC(F)(F)F)c(C(=O)N2CCN(c3ccc(C(F)(F)F)cc3F)CC2)c1 [Example 28, [4-(2-fluoro-4-trifluoromethyl-phenyl)-piperazin-1-yl]-[5-methanesulfonyl-2-(2,2,2-trifluoro-ethoxy)-phenyl]-methanone] | 12
CC(Oc1ccc(S(C)(=O)=O)cc1C(=O)N1CCN(c2cc(F)c(C#N)cc2F)CC1)C(F)(F)F (racemic) [compound 261] | 43
CC(Oc1ccc(S(C)(=O)=O)cc1C(=O)N1CCN(c2c(F)cc(C#N)cc2F)CC1)C(F)(F)F (racemic) [compound 260] | 43
CC(C)Oc1ccc(S(C)(=O)=O)cc1C(=O)N1CCN(c2ncc(C(F)(F)F)cc2Cl)CC1 [compound 417] | 46
CS(=O)(=O)c1ccc(OC2CCCCC2)c(C(=O)N2CCN(c3ccc(C(F)(F)F)c(F)c3)CC2)c1 [compound 287] | 33
